Laboratory results reported in PMC7614687, “Modulation of the substrate specificity of the kinase PDK1 by distinct conformations of the full-length protein*” (Science signaling, 2023).
Like-named read-outs stand apart in the source and are kept apart here.

Key:
[1] = tested on: PDK1; set-up: method as in PMID 20051961; conditions: read-out: IC50, in vitro inhibitor of PDK1; cited from earlier work
[2] = biological target: T1, GST-PDK1_1-556 (Homo sapiens, UniProt O15530); experiment: AlphaScreen GST-PDK1_1-556 / biotin-PIFtide interaction; assay type: binding
T1 construct: made in house; host or cells: HEK293 cells (transient transfection of pEBG2T); peptide synthesized by Pepscan
T1 sequence (O15530 1-556): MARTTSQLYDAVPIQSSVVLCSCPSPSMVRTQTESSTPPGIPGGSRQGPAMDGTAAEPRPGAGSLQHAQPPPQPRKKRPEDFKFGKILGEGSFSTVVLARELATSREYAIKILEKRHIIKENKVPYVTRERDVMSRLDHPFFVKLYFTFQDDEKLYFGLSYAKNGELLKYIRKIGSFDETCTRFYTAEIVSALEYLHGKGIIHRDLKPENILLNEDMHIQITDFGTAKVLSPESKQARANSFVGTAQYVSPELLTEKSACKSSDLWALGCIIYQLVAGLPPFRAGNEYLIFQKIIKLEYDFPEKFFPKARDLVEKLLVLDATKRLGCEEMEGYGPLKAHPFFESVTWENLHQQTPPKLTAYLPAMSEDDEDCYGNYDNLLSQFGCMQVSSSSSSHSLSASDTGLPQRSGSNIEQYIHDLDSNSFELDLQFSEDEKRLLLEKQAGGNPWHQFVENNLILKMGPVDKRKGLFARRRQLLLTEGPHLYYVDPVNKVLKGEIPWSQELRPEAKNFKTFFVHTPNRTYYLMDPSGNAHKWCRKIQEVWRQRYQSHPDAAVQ
Experimental: (§1) The AlphaScreen® assay was performed following the general guidelines from the manufacturer (Perkin Elmer) ([29]). In short, the assay was performed in a final volume of 25 μl in white 384-well microtiter plates (Greiner) in a standard buffer containing 50 mM Tris-HCl (pH 7.4), 100 mM NaCl, 2 mM DTT, 0.01% (v/v) Tween-20 and 0.1% (w/v) BSA, with the addition of 5 μl of beads (anti-GST coated acceptor beads and streptavidin-coated donor beads; nickel chelate-coated acceptor beads and streptavidin-coated donor beads; or nickel chelate-coated acceptor beads and GSH-coated donor beads, 20 μg/ml final concentrations for each bead type). AlphaScreen assays for His-tagged proteins and GST-fusion proteins were performed using nickel chelate-coated acceptor beads and GSH-coated donor beads; alphascreen assays for His-tagged proteins and biotinylated molecules were performed using nickel chelate-coated acceptor beads and streptavidin-coated donor beads; alphascreen assays for GST-fusion proteins and biotinylated molecules were performed using anti-GST coated acceptor beads and streptavidin-coated donor beads (Perkin Elmer).
The interaction between GST-PDK1_1-556 and biotin-PIFtide was performed as described previously ([29], [32]) in the standard buffer, but the bead concentration was lowered to 15 μg/ml.

[3] = biological target: T2, GST-PDK1_360-556 (Homo sapiens, UniProt O15530); experiment: AlphaScreen biotin-PIP3 / GST-PDK1_360-556 (linker-PH domain) displacement; assay type: binding; conditions: PIP3 20 nM, GST-PDK1 3 nM
T2 construct: GST-PDK1_360-556 (GST-PDK1-Linker-PH) was cloned into the BamHI-KpnI sites in pEBG2T plasmid; made in house; host or cells: HEK293 cells (transient transfection of pEBG2T)
T2 sequence (O15530 360-556): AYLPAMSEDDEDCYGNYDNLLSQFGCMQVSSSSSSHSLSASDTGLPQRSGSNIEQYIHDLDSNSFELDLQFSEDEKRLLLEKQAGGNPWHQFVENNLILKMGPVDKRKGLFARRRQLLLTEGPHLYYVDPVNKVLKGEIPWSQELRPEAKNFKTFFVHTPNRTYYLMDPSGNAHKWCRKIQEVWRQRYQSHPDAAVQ
Experimental: The AlphaScreen® assay was performed following the general guidelines from the manufacturer (Perkin Elmer) ([29]). In short, the assay was performed in a final volume of 25 μl in white 384-well microtiter plates (Greiner) in a standard buffer containing 50 mM Tris-HCl (pH 7.4), 100 mM NaCl, 2 mM DTT, 0.01% (v/v) Tween-20 and 0.1% (w/v) BSA, with the addition of 5 μl of beads (anti-GST coated acceptor beads and streptavidin-coated donor beads; nickel chelate-coated acceptor beads and streptavidin-coated donor beads; or nickel chelate-coated acceptor beads and GSH-coated donor beads, 20 μg/ml final concentrations for each bead type). […]
(§2) The conditions for each AlphaScreen assay were identified in cross-titration experiments for each interaction to choose the ideal pair of concentrations within the linear range of the interactions. […] His-PDK1 and GST-fusion protein in the presence or absence of the different compounds were incubated in the dark for 60 min at room temperature and the emission of light from the acceptor beads was measured in an EnVision reader (Perkin Elmer) or Spark plate reader (Tecan). […]
(§3) Biotin-PIP3 interactions with GST-PDK1_1-556 or GST-PDK1_360-556 were assessed in the standard buffer. […]

[4] = biological target: T1, GST-PDK1_1-556; experiment: AlphaScreen biotin-PIP3 / GST-PDK1_1-556 displacement; assay type: binding; conditions: PIP3 20 nM, GST-PDK1 3 nM
Experimental: as §1
The conditions for each AlphaScreen assay were identified in cross-titration experiments for each interaction to choose the ideal pair of concentrations within the linear range of the interactions. As required, the standard conditions were modified to use less material, to increase binding of the interacting molecules, to lower background signal, and so on. His-PDK1 and GST-fusion protein in the presence or absence of the different compounds were incubated in the dark for 60 min at room temperature and the emission of light from the acceptor beads was measured in an EnVision reader (Perkin Elmer) or Spark plate reader (Tecan). AlphaScreen assays were performed at least twice, although most experiments were performed multiple times by different researchers with different batches of purified proteins with similar results.
as §3

[5] = biological target: T3, His-PDK1_1-556 and GST-PDK1_360-556 (Homo sapiens, UniProt O15530); experiment: AlphaScreen PDK1 dimerization assay His-PDK1_1-556 / GST-PDK1_360-556; assay type: binding
T3 construct: made in house; host or cells: Sf9 insect cells (His-PDK1_1-556); HEK293 cells (GST-PDK1_360-556)
T3 sequence (O15530 1-556): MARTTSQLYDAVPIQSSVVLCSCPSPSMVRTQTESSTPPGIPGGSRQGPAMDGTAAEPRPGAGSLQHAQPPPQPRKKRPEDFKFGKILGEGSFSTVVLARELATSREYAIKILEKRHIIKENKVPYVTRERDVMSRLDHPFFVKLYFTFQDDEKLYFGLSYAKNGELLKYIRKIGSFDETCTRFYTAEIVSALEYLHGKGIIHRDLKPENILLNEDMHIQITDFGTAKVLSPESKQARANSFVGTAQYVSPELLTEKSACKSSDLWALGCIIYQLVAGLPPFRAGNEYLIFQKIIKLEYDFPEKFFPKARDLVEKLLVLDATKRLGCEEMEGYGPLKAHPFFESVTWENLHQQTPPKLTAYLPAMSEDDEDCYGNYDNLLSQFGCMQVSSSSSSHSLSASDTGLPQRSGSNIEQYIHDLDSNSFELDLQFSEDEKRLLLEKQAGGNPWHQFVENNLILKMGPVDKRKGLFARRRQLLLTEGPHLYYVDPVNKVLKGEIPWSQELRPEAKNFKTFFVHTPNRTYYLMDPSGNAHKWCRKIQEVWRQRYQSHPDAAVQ
Experimental: as §1, §2

[6] = biological target: T4, PDK1_1-556 (Homo sapiens, UniProt O15530); experiment: Differential scanning fluorimetry, thermal stability of PDK1_1-556; assay type: binding; conditions: PDK1 1 μM
T4 construct: effect of HYG8 on the thermal stability (ΔTm) of PDK1_1-556 (H) and PDK1_50-359 (I); His (N); made in house; host or cells: Sf9 insect cells (baculovirus)
T4 sequence (O15530 1-556): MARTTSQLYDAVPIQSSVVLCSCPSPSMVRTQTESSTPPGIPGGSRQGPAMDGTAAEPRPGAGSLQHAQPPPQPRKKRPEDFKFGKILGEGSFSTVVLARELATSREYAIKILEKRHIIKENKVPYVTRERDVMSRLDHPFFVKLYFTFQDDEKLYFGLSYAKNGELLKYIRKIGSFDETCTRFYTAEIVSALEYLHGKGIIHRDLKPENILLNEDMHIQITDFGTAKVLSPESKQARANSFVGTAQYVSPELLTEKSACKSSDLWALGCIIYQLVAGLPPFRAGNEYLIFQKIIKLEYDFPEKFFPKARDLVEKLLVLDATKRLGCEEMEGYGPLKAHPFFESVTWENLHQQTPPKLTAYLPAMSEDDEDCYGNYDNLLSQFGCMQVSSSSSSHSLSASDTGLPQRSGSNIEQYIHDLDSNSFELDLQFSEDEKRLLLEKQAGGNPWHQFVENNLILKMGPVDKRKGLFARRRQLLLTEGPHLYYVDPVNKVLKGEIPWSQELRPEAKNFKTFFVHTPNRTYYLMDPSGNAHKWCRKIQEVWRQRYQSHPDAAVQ
Experimental: The thermal stability of PDK1 was assessed by monitoring the unfolding of PDK1 by the increase in the fluorescence of SYPRO Orange (Invitrogen) using a real-time PCR device (StepOnePlus, Applied Biosystems and BioRad CFX96) following a previously described protocol ([70]). The reactions were performed in a final volume of 10 μl in white 96-well PCR microtiter plates (Greiner) and contained 1 μM PDK1, 10 mM HEPES (pH 7.5), 150 mM NaCl, 1/1000 SYPRO Orange and 1 mM dithiothreitol. For valsartan, the assay buffer was modified to exclude NaCl. PIFtide or compounds (at a final DMSO concentration of 1%) were added to this reaction mixture. The temperature gradient was performed in steps of 0.3 °C in the range from 25 to 70 °C. To calculate the Tm values, data were exported to GraphPad Prism and curves fitted to a Boltzmann sigmoidal equation with an acceptable confidence interval of 95%. Statistical analysis was performed with Infostat software (http://www.infostat.com.ar) and GraphPad Prism by first verifying a normal distribution of pooled residuals (Shapiro-Wilks test) and homogeneity of variance (F test), and then performing a one-way ANOVA followed by the post hoc comparisons test indicated in each figure legend.

[7] = biological target: T5, PDK1 (Homo sapiens, UniProt O15530); experiment: Thermo Fisher "PDK1 Direct" assay (peptide Ser/Thr 07, FRET readout); assay type: biochemical; conditions: 1 μM
T5 sequence (O15530 1-556): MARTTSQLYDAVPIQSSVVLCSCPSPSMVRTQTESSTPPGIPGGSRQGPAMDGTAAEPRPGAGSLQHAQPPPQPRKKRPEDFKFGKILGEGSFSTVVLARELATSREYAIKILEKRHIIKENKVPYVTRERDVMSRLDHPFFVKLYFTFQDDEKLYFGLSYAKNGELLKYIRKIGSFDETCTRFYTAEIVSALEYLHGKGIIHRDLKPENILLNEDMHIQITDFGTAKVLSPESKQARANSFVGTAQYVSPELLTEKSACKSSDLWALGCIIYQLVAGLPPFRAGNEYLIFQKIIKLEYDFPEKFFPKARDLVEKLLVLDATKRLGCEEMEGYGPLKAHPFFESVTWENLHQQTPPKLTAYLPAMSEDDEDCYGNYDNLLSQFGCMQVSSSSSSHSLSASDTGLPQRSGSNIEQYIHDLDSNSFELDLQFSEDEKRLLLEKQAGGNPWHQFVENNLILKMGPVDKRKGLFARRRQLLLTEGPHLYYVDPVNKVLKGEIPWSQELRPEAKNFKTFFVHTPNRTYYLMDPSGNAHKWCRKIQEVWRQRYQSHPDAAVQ

Row | effect on PDK1-PIFtide interaction [2] | IC50 ([5]; absence of PIFtide, read-out: IC50 (nM), displacement of His-PDK1_1-556 interaction with GST-PDK1_360-556) | IC50 ([5]; with PIFtide, read-out: IC50 (nM), displacement of His-PDK1_1-556 interaction with GST-PDK1_360-556 with PIFtide) | Tm (°C), temperature stabilization of PDK1_1-556 ([6]; compound 1 µM) | Tm (°C), temperature stabilization of PDK1_1-556 ([6]; compound 20 µM) | inhibition at 1 µM ([7]; replicate point 1, read-out: % Inhibition Point 1) | inhibition at 1 µM ([7]; replicate point 2, read-out: % Inhibition Point 2) | inhibition at 1 µM ([7]; single point, N=2, read-out: Inhibition at 1 μM (%)) | Compound | IC50 [1] | displacement of PIP3 from GST-PDK1_360-556 [3] | displacement of PIP3 from GST-PDK1_1-556 [4]
1 | – | – | – | – | – | – | – | – | O=P(O)(O)OC1C(OCc2ccccc2)C(OP(=O)(O)O)C(OP(=O)(O)O)C(OP(=O)(O)O)C1OP(=O)(O)O (stereo not drawn) [2-O-benzyl-IP5] | 26 nM | – | –
2 | virtually no effect | 458 nM | 159 nM | 2.9 °C | 6.0 °C | 9% | 11% | ≤ 10% | NCCO[C@H]1[C@@H](OP(=O)(O)O)[C@H](OP(=O)(O)O)[C@@H](OP(=O)(O)O)[C@H](OP(=O)(O)O)[C@H]1OP(=O)(O)O [AMR1474, 2-O-(2-aminoethyl)-IP5] | – | lacked or showed reduced ability to displace | lacked or showed reduced ability to displace
3 | did not enhance binding to PIFtide | – | – | – | – | – | – | – | O=P(O)(O)OC1[C@H](O)[C@H](OP(=O)(O)O)C(OP(=O)(O)O)[C@H](OP(=O)(O)O)[C@H]1O (stereo partly drawn) [IP4, inositol-1,3,4,5-tetrakisphosphate, reference compound] | – | – | –
